Results from patent publication US11058117B2, “Benzoxaborole compounds” (BASF SE, priority 2017, dated 2021).
Read-outs that look alike come from different tables or passages of the source.

How the values were obtained:
Amaranthus retroflexus [1] = experiment: greenhouse post-emergence herbicidal test; type: in vivo; conditions: scale 0 to 100
Protocol: (§1) The culture containers used were plastic flowerpots containing loamy sand with approximately 3.0% of humus as the substrate. The seeds of the test plants were sown separately for each species.
(§2) For this purpose, the test plants were either sown directly and grown in the same containers, or they were first grown separately as seedlings and transplanted into the test containers a few days prior to treatment.
(§3) Depending on the species, the plants were kept at 10-25° C. or 20-35° C., respectively.
(§4) The test period extended over 2 to 4 weeks. During this time, the plants were tended, and their response to the individual treatments was evaluated.
(§5) Evaluation was carried out using a scale from 0 to 100. 100 means no emergence of the plants, or complete destruction of at least the aerial moieties, and 0 means no damage, or normal course of growth. A moderate herbicidal activity is given at values of at least 60, a good herbicidal activity is given at values of at least 70, and a very good herbicidal activity is given at values of at least 85.

Setaria viridis = experiment: greenhouse post-emergence herbicidal test; type: in vivo; conditions: scale 0 to 100
Protocol: as §1, §2, §3, §4, §5

Echinocloa crus-galli = conditions: post-emergence, application rate 2 kg/ha; scale 0 to 100
Protocol: as §1, §2, §3, §4, §5

Abutilon theophrasti [2] = conditions: pre-emergence, application rate 2 kg/ha; scale 0 to 100
Source text: as §1
(§6) The containers were irrigated gently to promote germination and growth and subsequently covered with transparent plastic hoods until the plants had rooted. This cover caused uniform germination of the test plants, unless this had been impaired by the active ingredients.
as §3, §4, §5

Amaranthus retroflexus [3] = conditions: pre-emergence, application rate 2 kg/ha; scale 0 to 100
Source text: as §1, §6, §3, §4, §5

Setaria faberi = conditions: pre-emergence, application rate 2 kg/ha; scale 0 to 100
Source text: as §1, §6, §3, §4, §5

Alopecurus myosuroides = conditions: post-emergence, scale 0 to 100
Protocol: as §1, §2, §3, §4, §5

Abutilon theophrasti [4] = experiment: greenhouse post-emergence herbicidal test; type: in vivo; conditions: scale 0 to 100
Protocol: as §1, §2, §3, §4, §5

Polygonum convolvulus = conditions: post-emergence, application rate 0.25 kg/ha; scale 0 to 100
Protocol: as §1, §2, §3, §4, §5

Sesbania exaltata = conditions: post-emergence, application rate 0.25 kg/ha; scale 0 to 100
Protocol: as §1, §2, §3, §4, §5

Avena fatua = experiment: greenhouse post-emergence herbicidal test; type: in vivo; conditions: application rate 2 kg/ha, scale 0 to 100
Protocol: as §1, §2, §3, §4, §5

What does the source list for `COC(=O)C1Cc2ccc3c(c2O1)B(O)OC3` (stereo not drawn) [Compound 5]?
herbicidal activity against Amaranthus retroflexus (Amaranthus retroflexus [1]; application rate 2 kg/ha): 100%; herbicidal activity against Setaria viridis (Setaria viridis; application rate 2 kg/ha): 100%; herbicidal activity against Echinocloa crus-galli (Echinocloa crus-galli): 100%; herbicidal activity against Abutilon theophrasti (Abutilon theophrasti [2]): 80%; herbicidal activity against Amaranthus retroflexus (Amaranthus retroflexus [3]): 95%; herbicidal activity against Setaria faberi (Setaria faberi): 85%

How did the “herbicidal activity against Amaranthus retroflexus” value (Amaranthus retroflexus [1]; application rate 1 kg/ha) turn out when `O=C(O)C1CCc2ccc3c(c2C1)B(O)OC3` (stereo not drawn) [Compound 21] was run?
Its value is 100%.

What about the “herbicidal activity against Setaria viridis” value (Setaria viridis; application rate 1 kg/ha) of the same compound?
Its value is 80%.

And the “herbicidal activity against Alopecurus myosuroides” value (Alopecurus myosuroides; application rate 1 kg/ha)?
The value was 80%.

With `COC(=O)C1Cc2c(C(F)(F)F)cc3c(c2C1)B(O)OC3` (stereo not drawn) [Compound 19] as the compound, how does the “herbicidal activity against Abutilon theophrasti” value (Abutilon theophrasti [4]; application rate 1 kg/ha) read?
The value was 100%.

And the “herbicidal activity against Amaranthus retroflexus” value (Amaranthus retroflexus [1]; application rate 1 kg/ha)?
Its value is 100%.

And the “herbicidal activity against Setaria viridis” value (Setaria viridis; application rate 1 kg/ha)?
Its value is 90%.

Which results are given for `O=C(O)C1Cc2c(C(F)(F)F)cc3c(c2C1)B(O)OC3` (stereo not drawn) [Compound 22]?
herbicidal activity against Abutilon theophrasti (Abutilon theophrasti [4]; application rate 1 kg/ha): 100%; herbicidal activity against Amaranthus retroflexus (Amaranthus retroflexus [1]; application rate 1 kg/ha): 100%; herbicidal activity against Alopecurus myosuroides (Alopecurus myosuroides; application rate 1 kg/ha): 95%

How did the “herbicidal activity against Amaranthus retroflexus” value (Amaranthus retroflexus [1]; application rate 2 kg/ha) turn out when `CCOC(=O)C1COc2c(ccc3c2B(O)OC3)O1` (stereo not drawn) [Compound 16] was run?
The value was 100%.

Which results are given for `COC(=O)C1CCc2ccc3c(c2C1)B(O)OC3` (stereo not drawn) [Compound 20]?
herbicidal activity against Abutilon theophrasti (Abutilon theophrasti [4]; application rate 1 kg/ha): 100%; herbicidal activity against Amaranthus retroflexus (Amaranthus retroflexus [1]; application rate 1 kg/ha): 100%; herbicidal activity against Setaria viridis (Setaria viridis; application rate 1 kg/ha): 100%

Which results are given for `CCOC(=O)C1COc2ccc3c(c2O1)B(O)OC3` (stereo not drawn) [Compound 15]?
herbicidal activity against Abutilon theophrasti (Abutilon theophrasti [4]; application rate 2 kg/ha): 90%; herbicidal activity against Amaranthus retroflexus (Amaranthus retroflexus [1]; application rate 2 kg/ha): 90%

With `O=C(O)C1Oc2ccc3c(c2O1)B(O)OC3` (stereo not drawn) [Compound 2, 1-hydroxy-3H-[1,3]dioxolo[4,5-g][2,1]benzoxaborole-7-carboxylic acid] as the compound, how does the “herbicidal activity against Abutilon theophrasti” value (Abutilon theophrasti [4]; application rate 2 kg/ha) read?
The value was 90%.

And the “herbicidal activity against Amaranthus retroflexus” value (Amaranthus retroflexus [1]; application rate 2 kg/ha)?
Its value is 100%.

And the “herbicidal activity against Setaria viridis” value (Setaria viridis; application rate 2 kg/ha)?
Its value is 80%.

With `COC(=O)C1Cc2c(F)cc3c(c2O1)B(O)OC3` (stereo not drawn) [Compound 12] as the compound, how does the “herbicidal activity against Amaranthus retroflexus” value (Amaranthus retroflexus [1]; application rate 0.25 kg/ha) read?
Its value is 100%.

And the “herbicidal activity against Polygonum convolvulus” value (Polygonum convolvulus)?
Its value is 95%.

And the “herbicidal activity against Sesbania exaltata” value (Sesbania exaltata)?
The value was 100%.

With `CCOC(=O)C1Oc2ccc3c(c2O1)B(O)OC3` (stereo not drawn) [Compound 3, ethyl 1-hydroxy-3H-[1,3]dioxolo[4,5-g][2,1]benzoxaborole-7-carboxylate] as the compound, how does the “herbicidal activity against Amaranthus retroflexus” value (Amaranthus retroflexus [1]; application rate 2 kg/ha) read?
Its value is 100%.

What about the “herbicidal activity against Setaria viridis” value (Setaria viridis; application rate 2 kg/ha) of the same compound?
Its value is 100%.

How did the “herbicidal activity against Abutilon theophrasti” value (Abutilon theophrasti [4]; application rate 0.25 kg/ha) turn out when `COC(=O)C1Cc2ccc3c(c2C1)B(O)OC3` (stereo not drawn) [Compound 14] was run?
Its value is 100%.

And the “herbicidal activity against Amaranthus retroflexus” value (Amaranthus retroflexus [1]; application rate 0.25 kg/ha)?
Its value is 100%.

What about the “herbicidal activity against Sesbania exaltata” value (Sesbania exaltata) of the same compound?
Its value is 100%.

Which “herbicidal activity against Amaranthus retroflexus” value (Amaranthus retroflexus [1]; application rate 1 kg/ha) does the source give for `O=C(O)C1Cc2c(ccc3c2B(O)OC3)O1` (stereo not drawn) [Compound 18] here?
The value was 100%.

What about the “herbicidal activity against Setaria viridis” value (Setaria viridis; application rate 1 kg/ha) of the same compound?
The value was 90%.

What does the source list for `COC(=O)C1Cc2c(Cl)cc3c(c2O1)B(O)OC3` (single isomer, unassigned) [Compound 8]?
herbicidal activity against Amaranthus retroflexus (Amaranthus retroflexus [1]; application rate 2 kg/ha): 100%; herbicidal activity against Setaria viridis (Setaria viridis; application rate 2 kg/ha): 100%; herbicidal activity against Echinocloa crus-galli (Echinocloa crus-galli): 100%; herbicidal activity against Setaria faberi (Setaria faberi): 80%

With `COC(=O)C1Cc2c(Cl)cc3c(c2O1)B(O)OC3` (single isomer, unassigned) [Compound 7] as the compound, how does the “herbicidal activity against Abutilon theophrasti” value (Abutilon theophrasti [4]; application rate 2 kg/ha) read?
Its value is 100%.

And the “herbicidal activity against Amaranthus retroflexus” value (Amaranthus retroflexus [1]; application rate 2 kg/ha)?
Its value is 100%.

What about the “herbicidal activity against Avena fatua” value (Avena fatua) of the same compound?
The value was 100%.

Which results are given for `COC(=O)C1Cc2c(c(Cl)cc3c2B(O)OC3C)O1` (stereo not drawn) [Compound 9, methyl-5-chloro-1-hydroxy-3-methyl-7,8-dihydro-3H-furo[2,3-g][2,1]benzoxaborole-7-carboxylate]?
herbicidal activity against Abutilon theophrasti (Abutilon theophrasti [4]; application rate 2 kg/ha): 100%; herbicidal activity against Amaranthus retroflexus (Amaranthus retroflexus [1]; application rate 2 kg/ha): 100%; herbicidal activity against Avena fatua (Avena fatua): 98%

Which results are given for `O=C(O)C1Cc2ccc3c(c2O1)B(O)OC3` (stereo not drawn) [Compound 6]?
herbicidal activity against Abutilon theophrasti (Abutilon theophrasti [4]; application rate 2 kg/ha): 100%; herbicidal activity against Amaranthus retroflexus (Amaranthus retroflexus [1]; application rate 2 kg/ha): 100%; herbicidal activity against Alopecurus myosuroides (Alopecurus myosuroides; application rate 2 kg/ha): 98%; herbicidal activity against Amaranthus retroflexus (Amaranthus retroflexus [3]): 80%

For `COC(=O)C1Oc2ccc3c(c2O1)B(O)OC3` (stereo not drawn) [Compound 4], which “herbicidal activity against Abutilon theophrasti” value (Abutilon theophrasti [4]; application rate 2 kg/ha) is on record?
Its value is 100%.

And the “herbicidal activity against Amaranthus retroflexus” value (Amaranthus retroflexus [1]; application rate 2 kg/ha)?
The value was 100%.

For `O=C(O)C1Cc2c(F)cc3c(c2O1)B(O)OC3` (stereo not drawn) [Compound 13], which “herbicidal activity against Amaranthus retroflexus” value (Amaranthus retroflexus [1]; application rate 0.25 kg/ha) is on record?
The value was 100%.

What about the “herbicidal activity against Polygonum convolvulus” value (Polygonum convolvulus) of the same compound?
The value was 85%.

And the “herbicidal activity against Sesbania exaltata” value (Sesbania exaltata)?
The value was 100%.

For `COC(=O)C1Cc2c(ccc3c2B(O)OC3)O1` (stereo not drawn) [Compound 17], which “herbicidal activity against Amaranthus retroflexus” value (Amaranthus retroflexus [1]; application rate 2 kg/ha) is on record?
The value was 100%.
